Measurements: US10828368B2, “Therapeutic treatments using centhaquin” (MIDWESTERN UNIVERSITY, priority 2009, dated 2020)
Where two headings read alike, the source gives them in different places.

What was measured:
[1] = test system: urethane anaesthetized rats; assay: Cardiovascular response (MAP, PP, HR) of drugs in urethane anaesthetized rats; assay type: in vivo, rat; conditions: for decrease in MAP / reduction in HR: compared to baseline; for dose-response effect on MAP, PP and HR: clonidine 10, 30, 90 μg/kg i.v., centhaquin 0.05, 0.15, 0.45 mg/kg i.v.
From the text: Rats were anaesthetized with urethane (1.5 g/kg i.p.) and prepared for the determination of hemodynamic parameters (Gulati and Srimal, 1993; Gulati et al., 1997b). The anesthetized rats were shaved and immobilized to prepare for cannulation. A 2-3 cm incision was made above the femoral vein and artery, and the vessels were dissected and cleaned. The left femoral vein was cannulated (PE-50 tubing, Clay Adams, Parsipanny, N.J.) and secured for drug administration. An ultra-miniature Pressure transducer SPR-320 (2F Polyurethane), with a single pressure sensor side mounted at the tip (Millar Instruments, Houston, Tex.), was inserted in the left femoral artery to acquire the hemodynamic signals. Pressure transducer was connected to bridge amplifier (ML221 Bridge Amp; AD Instruments, Mountain View, Calif., USA) with Viking connector (AEC-10C) and the signals were continuously acquired at a sampling rate of 1000 S^−1 using Millar PowerLab 16/30 data acquisition system (AD Instruments, Mountain View, Calif., USA). MAP, HR, and PP were determined and analyzed with LabChart-5.00 software program (Millar Instruments). After the experiment was completed, the animals were euthanized with higher dose of urethane (3 gm/kg).
The animals were allowed to stabilize for at least 20 min following surgical procedures.
In the above studies, all drugs were injected through the left femoral vein and changes in MAP, HR, and PP after clonidine and centhaquin injection were recorded for 1 hour using Millar PowerLab 16/30 data acquisition system.

[2] = Arterial blood gas analysis before and one hour after drug; assay type: in vivo, rat; conditions: for changes in arterial blood pH, pO2, pCO2, Na^+, K^+, lactate and hematocrit: before versus one hour after clonidine 90 μg/kg or centhaquin 0.45 mg/kg
From the text: Arterial blood pH, pO2, pCO2, Na^+, K^+, and lactate were monitored prior to and after drug administration. Blood samples were drawn from the arterial cannula using blood gas sampling syringes (Innovative Medical Technologies, Inc. Leawood, Kans.) and analyzed using a GEM Premier 3000 unit (Instrument Laboratory, Lexington, Mass.).
Blood samples were drawn from the arterial cannula using blood gas sampling syringes (Innovative Medical Technologies, Inc. Leawood, Kans.) and analyzed using a GEM Premier 3000 unit (Instrument Laboratory, Lexington, Mass.).

[3] = test system: rats; assay: Tail-flick latency analgesia (FIGS. 9-13); assay type: in vivo, rat; conditions: iv
[4] = test system: rats in the hemorrhagic shock model; assay: Hemorrhagic shock model, resuscitation with Ringer's lactate and centhaquin; assay type: in vivo, rat
[5] = test system: mice; conditions: intraperitoneal; cited from earlier work
[6] = test system: rats; conditions: cited from earlier work
[7] = once a day for 15 days; cited from earlier work
[8] = test system: norepinephrine release; conditions: centhaquin 0.1, 1.0 and 10.0 μg/ml; cited from earlier work
[9] = test system: α-adrenergic receptors in the hypothalamus and medulla; conditions: chronic administration in rats; with hypotension and bradycardia; cited from earlier work
[10] = test system: 5-HT1 receptors in the medulla; conditions: cited from earlier work
[11] = one hour after clonidine 90 μg/kg or centhaquin 0.45 mg/kg

## Cc1cccc(N2CCN(CCc3ccc4ccccc4n3)CC2)c1 [Centhaquin]
[1]; centhaquin 0.05 mg/kg i.v.
  decrease in MAP: 15.64%
  reduction in HR: 10.49%
[1]; centhaquin 0.15 mg/kg i.v.
  decrease in MAP: 25.15%
  reduction in HR: 12.57%
[1]; centhaquin 0.45 mg/kg i.v.
  decrease in MAP: 28.08%
  reduction in HR: 13.34%
[1]
  dose-response effect on MAP, PP and HR: dose-dependent fall in MAP, and a decrease in HR
[1]; listed as centhaquin
  dose-response effect on MAP, PP and HR: dose-dependent hypotension and bradycardia
[2]
  changes in arterial blood pH, pO2, pCO2, Na^+, K^+, lactate and hematocrit: did not affect arterial blood pH, pO2, and pCO2
[2]; listed as centhaquin
  changes in arterial blood pH, pO2, pCO2, Na^+, K^+, lactate and hematocrit: no significant changes
[2]; [11]
  Hct: 52 ± 1%
  K^+: 4.0 ± 0.2 mmol/L
  Na^+: 140 ± 1 mmol/L
  arterial blood pH: 7.27 ± 0.02
  pCO2: 53 ± 2 mmHg
  pO2: 96 ± 9 mmHg
[3]; centhaquin 0.3 mg/kg
  analgesic effect relative to 4 mg/kg dose of morphine: comparable
[3]; centhaquin 0.9 mg/kg
  analgesic effect relative to 4 mg/kg dose of morphine: significantly greater
[3]; centhaquin 0.1, 0.3 and 0.9 mg/kg
  analgesia (tail-flick latency): dose-dependent analgesia
[3]; centhaquin 0.3 and 0.9 mg/kg
  effect on morphine analgesia: potentiated
[4]; LR-100 and centhaquin 0.05 mg/kg compared with LR-100
  pressure-volume loops: improvement
[4]; centhaquin 0.05-0.45 mg/kg
  blood lactate, comparison of centhaquin doses: lower doses of centhaquin were more effective than the higher doses
[4]; centhaquin 0.05-0.45 mg/kg with Ringer's lactate
  blood lactate: drop in lactate
[4]; centhaquin administered with LR-100
  survival time: increase in survival time
[5]
  LD50: 600 mg/kg
[6]; centhaquin 0.05 to 0.2 mg/kg, iv, urethane anesthetized rats
  effect on MAP and HR: dose-dependent decrease
[6]; cervical sectioned rats, intravenously administered
  effect on MAP or HR: did not produce any effect
[6]; intrathecal administration
  effect on MAP or HR: did not produce any effect
[7]
  potentiation or tolerance on repeated administration: did not produce any potentiation or tolerance
[8]
  norepinephrine release evoked by potassium chloride and dimethyl phenyl piperazinium chloride: inhibited
  spontaneous release of norepinephrine: initial increase followed by decrease
[9]
  effect of chronic administration on α-adrenergic receptors in the hypothalamus and medulla: up-regulation
[10]
  effect of repeated administration on 5-HT1 receptors in the medulla: up-regulation
